Laboratory results taken from ChEMBL document CHEMBL4411327, “Discovery of pyrimidine nucleoside dual prodrugs and pyrazine nucleosides as novel anti-HCV agents” (Bioorg Med Chem, 2019).

How the values were obtained:
Hepatitis C virus [1] = assay: Antiviral activity against HCV genotype 1b replicon infected in human HuH7 cells at 100 uM after 72 hrs by bright-glo luciferase reporter gene assay relative to control; type: functional, Hepacivirus hominis; conditions: subtype 1b, Huh-7, 72 h
[2] = Cytotoxicity against human HuH7 cells infected with HCV genotype 1b replicon after 72 hrs by CellTiter-Fluor reagent based fluorescence assay; type: cell-based, Huh-7
Hepatitis C virus [3] = assay: Antiviral activity against HCV genotype 1b replicon infected in human HuH7 cells after 72 hrs by bright-glo luciferase reporter gene assay; type: functional, organism-based, Hepacivirus hominis; conditions: subtype 1b, Huh-7, 72 h
Hepatitis C virus [4] = assay: Antiviral activity against HCV genotype 1b replicon infected in human HuH7 cells at 10 uM after 72 hrs by bright-glo luciferase reporter gene assay relative to control; type: functional, Hepacivirus hominis; conditions: subtype 1b, Huh-7, 72 h
Hepatitis C virus [5] = assay: Antiviral activity against HCV genotype 1b replicon infected in human HuH7 cells at 20 uM after 72 hrs by bright-glo luciferase reporter gene assay relative to control; type: functional, Hepacivirus hominis; conditions: subtype 1b, Huh-7, 72 h
[6] = Half life in human liver microsomes at 0.1 uM preincubated with MgCl2 for 10 mins followed by NADPH addition by LC-MS/MS analysis; type: ADME, Microsome
[7] = Stability in human liver microsomes assessed as parent compound remaining at 0.1 uM preincubated with MgCl2 for 10 mins followed by NADPH addition measured after 7 mins by LC-MS/MS analysis; type: ADME, Microsome; conditions: read-out: Stability
[8] = Stability in human plasma assessed as parent compound remaining at 40 uM measured after 0.5 hrs by LC-MS/MS analysis; type: ADME, cell-free; conditions: read-out: Stability
[9] = Stability in human plasma assessed as parent compound remaining at 40 uM measured after 1 hr by LC-MS/MS analysis; type: ADME, cell-free; conditions: read-out: Stability
[10] = Stability in human liver microsomes assessed as parent compound remaining at 0.1 uM preincubated with MgCl2 for 10 mins followed by NADPH addition measured after 17 mins by LC-MS/MS analysis; type: ADME, Microsome
[11] = Stability in human liver microsomes assessed as parent compound remaining at 0.1 uM preincubated with MgCl2 for 10 mins followed by NADPH addition measured after 60 mins by LC-MS/MS analysis; type: ADME, Microsome; conditions: read-out: Stability
[12] = Metabolic bioavailability in human liver microsomes at 0.1 uM preincubated with MgCl2 for 10 mins followed by NADPH addition measured within 60 mins by LC-MS/MS analysis; type: ADME, Microsome
[13] = Stability in human plasma assessed as parent compound remaining at 40 uM measured after 2 hrs by LC-MS/MS analysis; type: ADME, cell-free; conditions: read-out: Stability
[14] = Half life in human plasma at 40 uM by LC-MS/MS analysis; type: ADME, cell-free
[15] = Stability in human plasma assessed as parent compound remaining at 40 uM measured after 5 hrs by LC-MS/MS analysis; type: ADME, cell-free; conditions: read-out: Stability
[16] = Stability in human liver microsomes assessed as parent compound remaining at 0.1 uM preincubated with MgCl2 for 10 mins followed by NADPH addition measured immediately by LC-MS/MS analysis; type: ADME, Microsome; conditions: read-out: Stability
[17] = Stability in human plasma assessed as parent compound remaining at 40 uM measured immediately by LC-MS/MS analysis; type: ADME, cell-free; conditions: read-out: Stability
[18] = Stability in human liver microsomes assessed as parent compound remaining at 0.1 uM preincubated with MgCl2 for 10 mins followed by NADPH addition measured after 30 mins by LC-MS/MS analysis; type: ADME, Microsome
[19] = liver microsomes, read-out: Stability

| Compound | CC50 at 72 h [2] | EC50 (Hepatitis C virus [3]) | also measured |
| --- | --- | --- | --- |
| C[C@@]1(O)[C@H](O)[C@@H](CO)O[C@H]1n1ccnc(N)c1=O | > 100 µM | – | inhibition at 100 µM (Hepatitis C virus [1]): 22.3% |
| CC(C)OC(=O)[C@H](C)N[P@](=O)(OC[C@H]1O[C@@H](n2ccc(=O)n(C(C)OC(=O)OC3CCCCC3)c2=O)[C@](C)(F)[C@@H]1O)Oc1ccccc1 (stereo not given in full) | > 10 µM | 0.5 µM | inhibition at 10 µM (Hepatitis C virus [4]): 99.9% |
| CC(C)OC(=O)[C@H](C)N[P@](=O)(OC[C@H]1O[C@@H](n2ccnc(N)c2=O)[C@](C)(O)[C@@H]1O)Oc1ccccc1 | 59.6 µM | 24.4 µM | inhibition at 100 µM (Hepatitis C virus [1]): 99.8% |
| C[C@@]1(O)[C@H](O)[C@@H](CO)O[C@H]1n1cc(Br)ncc1=O | > 100 µM | > 100 µM | – |
| CCNc1nccn([C@@H]2O[C@H](CO)[C@@H](O)[C@@]2(C)O)c1=O | > 100 µM | > 100 µM | – |
| CC(C)OC(=O)[C@H](C)N[P@](=O)(OC[C@H]1O[C@@H](n2ccc(Oc3ccccc3)nc2=O)[C@](C)(F)[C@@H]1O)Oc1ccccc1 | > 20 µM | > 20 µM | inhibition at 20 µM (Hepatitis C virus [5]): 0% |
| C[C@]1(CO)O[C@@H](n2ccnc(N)c2=O)[C@H](O)[C@@H]1O | > 100 µM | > 100 µM | – |
| CC(C)OC(=O)[C@H](C)N[P@](=O)(OC[C@H]1O[C@@H](n2cc(C(N)=O)ncc2=O)[C@](C)(O)[C@@H]1O)Oc1ccccc1 | > 100 µM | > 100 µM | – |
| CCNc1nccn([C@@H]2O[C@](C)(CO)[C@@H](O)[C@H]2O)c1=O | > 100 µM | > 100 µM | – |
| CCOC(=O)OCn1c(=O)ccn([C@@H]2O[C@H](CO[P@@](=O)(N[C@@H](C)C(=O)OC(C)C)Oc3ccccc3)[C@@H](O)[C@@]2(C)F)c1=O | > 10 µM | 0.21 µM | inhibition at 10 µM (Hepatitis C virus [4]): 99.3% |
| C=CCNc1ccn([C@@H]2O[C@H](CO[P@@](=O)(N[C@@H](C)C(=O)OC(C)C)Oc3ccccc3)[C@@H](O)[C@@]2(C)F)c(=O)n1 | > 20 µM | > 20 µM | inhibition at 20 µM (Hepatitis C virus [5]): 0% |
| C=CCOc1ccn([C@@H]2O[C@H](CO[P@@](=O)(N[C@@H](C)C(=O)OC(C)C)Oc3ccccc3)[C@@H](O)[C@@]2(C)F)c(=O)n1 | > 20 µM | > 20 µM | inhibition at 20 µM (Hepatitis C virus [5]): 0% |
| C[C@@]1(O)[C@H](O)[C@@H](CO)O[C@H]1n1cc(C(N)=O)ncc1=O | > 100 µM | > 100 µM | – |
| CC(C)OC(=O)OC(C)n1c(=O)ccn([C@@H]2O[C@H](CO[P@@](=O)(N[C@@H](C)C(=O)OC(C)C)Oc3ccccc3)[C@@H](O)[C@@]2(C)F)c1=O (stereo not given in full) | > 10 µM | 0.22 µM | t1/2 ([6]; microsomes, 0.1 µM): 13.5 min; remaining at 7 min, 0.1 µM [7]: 51.2%; remaining at 0.5 h, 40 µM [8]: 92.8%; remaining at 1 h, 40 µM [9]: 90%; Stability ([10]; microsomes, 17 min, 0.1 µM): 12.8%; inhibition at 10 µM (Hepatitis C virus [4]): 99.8%; remaining at 1 h, 0.1 µM [11]: 0%; Fh at 1 h, 0.1 µM [12]: 11.2%; remaining at 2 h, 40 µM [13]: 85.3%; half-life at 40 µM [14]: 984 min; remaining at 5 h, 40 µM [15]: 78.9%; remaining at 0 min, 0.1 µM [16]: 100%; remaining at 0 h, 40 µM [17]: 100%; Stability ([18]; microsomes, 0.5 h, 0.1 µM): 2.1% |
| C[C@]1(CO)O[C@@H](n2ccnc(C(N)=O)c2=O)[C@H](O)[C@@H]1O | > 100 µM | > 100 µM | – |
| C[C@@]1(O)[C@H](O)[C@@H](CO)O[C@H]1n1cc(Cl)nc(C(N)=O)c1=O | > 100 µM | 7.3 µM | – |

| Compound | CC50 at 72 h [2] | EC50 (Hepatitis C virus [3]) | also measured |
| --- | --- | --- | --- |
| CCOC(=O)n1c(=O)ccn([C@@H]2O[C@H](CO[P@@](=O)(N[C@@H](C)C(=O)OC(C)C)Oc3ccccc3)[C@@H](O)[C@@]2(C)F)c1=O | > 10 µM | 0.65 µM | inhibition at 10 µM (Hepatitis C virus [4]): 100% |
| CCNc1nccn([C@@H]2O[C@](C)(CO[P@@](=O)(N[C@@H](C)C(=O)OC(C)C)Oc3ccccc3)[C@@H](O)[C@H]2O)c1=O | > 100 µM | > 100 µM | – |
| CC(C)OC(=O)[C@@H](C)N[P@@](=O)(OC[C@H]1O[C@@H](n2ccnc(N)c2=O)[C@](C)(O)[C@@H]1O)Oc1ccccc1 | > 100 µM | > 100 µM | – |
| CCCCCOC(=O)n1c(=O)ccn([C@@H]2O[C@H](CO[P@@](=O)(N[C@@H](C)C(=O)OC(C)C)Oc3ccccc3)[C@@H](O)[C@@]2(C)F)c1=O | > 10 µM | 0.7 µM | inhibition at 10 µM (Hepatitis C virus [4]): 99.9% |
| COc1ccn([C@@H]2O[C@H](CO[P@@](=O)(N[C@@H](C)C(=O)OC(C)C)Oc3ccccc3)[C@@H](O)[C@@]2(C)F)c(=O)n1 | > 20 µM | > 20 µM | inhibition at 20 µM (Hepatitis C virus [5]): 0% |
| CCNc1nccn([C@@H]2O[C@H](CO[P@@](=O)(N[C@@H](C)C(=O)OC(C)C)Oc3ccccc3)[C@@H](O)[C@@]2(C)O)c1=O | > 100 µM | > 100 µM | – |
| CC(C)OC(=O)[C@H](C)N[P@](=O)(OC[C@H]1O[C@@H](n2ccc(=O)n(C(=O)OCc3ccccc3)c2=O)[C@](C)(F)[C@@H]1O)Oc1ccccc1 | > 10 µM | 0.5 µM | inhibition at 10 µM (Hepatitis C virus [4]): 99.3% |
| CCOC(=O)OC(C)n1c(=O)ccn([C@@H]2O[C@H](CO[P@@](=O)(N[C@@H](C)C(=O)OC(C)C)Oc3ccccc3)[C@@H](O)[C@@]2(C)F)c1=O (stereo not given in full) | > 10 µM | 0.22 µM | inhibition at 10 µM (Hepatitis C virus [4]): 99.6% |
| CC(C)OC(=O)[C@H](C)N[P@](=O)(OC[C@@]1(C)O[C@@H](n2ccnc(N)c2=O)[C@H](O)[C@@H]1O)Oc1ccccc1 | > 100 µM | 19.5 µM | inhibition at 100 µM (Hepatitis C virus [1]): 85.1% |
| CC(C)OC(=O)[C@H](C)N[P@](=O)(OC[C@H]1O[C@@H](n2ccc(OC3CC3)nc2=O)[C@](C)(F)[C@@H]1O)Oc1ccccc1 | > 20 µM | > 20 µM | inhibition at 20 µM (Hepatitis C virus [5]): 0% |
| C#CCOc1ccn([C@@H]2O[C@H](CO[P@@](=O)(N[C@@H](C)C(=O)OC(C)C)Oc3ccccc3)[C@@H](O)[C@@]2(C)F)c(=O)n1 | > 20 µM | 12.2 µM | inhibition at 20 µM (Hepatitis C virus [5]): 46.9% |
| CC(C)=CCOc1ccn([C@@H]2O[C@H](CO[P@@](=O)(N[C@@H](C)C(=O)OC(C)C)Oc3ccccc3)[C@@H](O)[C@@]2(C)F)c(=O)n1 | > 20 µM | 0.2 µM | inhibition at 20 µM (Hepatitis C virus [5]): 99.9% |
| CC(C)COC(=O)n1c(=O)ccn([C@@H]2O[C@H](CO[P@@](=O)(N[C@@H](C)C(=O)OC(C)C)Oc3ccccc3)[C@@H](O)[C@@]2(C)F)c1=O | > 10 µM | 0.4 µM | half-life at 0.1 µM ([6]; liver microsomes): 1.44 min; remaining at 7 min, 0.1 µM [7]: 3.5%; remaining at 0.5 h, 40 µM [8]: 87.3%; remaining at 1 h, 40 µM [9]: 61%; remaining at 17 min, 0.1 µM [10, 19]: 0%; inhibition at 10 µM (Hepatitis C virus [4]): 99.9%; remaining at 1 h, 0.1 µM [11]: 0%; Fh at 1 h, 0.1 µM [12]: 1.33%; remaining at 2 h, 40 µM [13]: 17.2%; half-life at 40 µM [14]: 18 min; remaining at 5 h, 40 µM [15]: 0%; remaining at 0 min, 0.1 µM [16]: 100%; remaining at 0 h, 40 µM [17]: 100%; remaining at 0.5 h, 0.1 µM [18, 19]: 0% |
| CC(C)OC(=O)[C@H](C)N[P@](=O)(OC[C@H]1O[C@@H](n2ccc(OCc3ccccc3)nc2=O)[C@](C)(F)[C@@H]1O)Oc1ccccc1 | > 20 µM | > 20 µM | inhibition at 20 µM (Hepatitis C virus [5]): 0% |
| CC=CCOc1ccn([C@@H]2O[C@H](CO[P@@](=O)(N[C@@H](C)C(=O)OC(C)C)Oc3ccccc3)[C@@H](O)[C@@]2(C)F)c(=O)n1 (mixture of isomers) | > 100 µM | 30.3 µM | inhibition at 100 µM (Hepatitis C virus [1]): 66.3% |
| CC(C)OC(=O)[C@H](C)N[P@](=O)(OC[C@H]1O[C@@H](n2ccc(=O)[nH]c2=O)[C@](C)(F)[C@@H]1O)Oc1ccccc1 [SOFOSBUVIR] | > 20 µM | 0.18 µM | inhibition at 20 µM (Hepatitis C virus [5]): 99.9% |
